System: A498 complex spheroids with HUVEC/MSC, growth
Assay: Anticancer human tumor A498 cell line growth inhibition [AhR];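 also: seven day exposure starting three days after spheroid seeding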;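 as to viability, T/C: luminescence signal used as a surrogate for viable cells; luminescence viability scaled so 100% equals DMSO vehicle wells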
Conditions: for IC50: curve of first compound; for viability, T/C: stronger effect = lower value
Outline: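 Spheroids combined tumor cells with HUVEC endothelial cells and human MSCs as stroma. AhR antagonists were paired with standard or investigational drugs, each dosed in half-log steps down from near clinical Cmax, or from 10 microM where Cmax was unknown.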

[1] = second compound 0.1 µM, first compound 0.0316 µM
[2] = second compound 0.1 µM, first compound 0.1 µM
[3] = second compound 0.1 µM, first compound 0.316 µM
[4] = second compound 0.1 µM, first compound 1 µM
[5] = second compound 0.1 µM, first compound 3.16 µM
[6] = second compound 0.1 µM, first compound 10 µM
[7] = second compound 0.316 µM, first compound 0.0316 µM
[8] = second compound 0.316 µM, first compound 0.1 µM
[9] = second compound 0.316 µM, first compound 0.316 µM
[10] = second compound 0.316 µM, first compound 1 µM
[11] = second compound 0.316 µM, first compound 3.16 µM
[12] = second compound 0.316 µM, first compound 10 µM
[13] = second compound 1 µM, first compound 0.0316 µM
[14] = second compound 1 µM, first compound 0.1 µM
[15] = second compound 1 µM, first compound 0.316 µM
[16] = second compound 1 µM, first compound 1 µM
[17] = second compound 1 µM, first compound 3.16 µM
[18] = second compound 1 µM, first compound 10 µM
[19] = second compound 3.16 µM, first compound 0.0316 µM
[20] = second compound 3.16 µM, first compound 0.1 µM
[21] = second compound 3.16 µM, first compound 0.316 µM
[22] = second compound 3.16 µM, first compound 1 µM
[23] = second compound 3.16 µM, first compound 3.16 µM
[24] = second compound 3.16 µM, first compound 10 µM
[25] = second compound 10 µM, first compound 0.0316 µM
[26] = second compound 10 µM, first compound 0.1 µM
[27] = second compound 10 µM, first compound 0.316 µM
[28] = second compound 10 µM, first compound 1 µM
[29] = second compound 10 µM, first compound 3.16 µM
[30] = second compound 10 µM, first compound 10 µM

Row | Structure (SMILES) | IC50 (second compound 0.1 µM) | IC50 (second compound 0.316 µM) | IC50 (second compound 1 µM) | IC50 (second compound 3.16 µM) | IC50 (second compound 10 µM) | viability, T/C [1] | viability, T/C [2] | viability, T/C [3] | viability, T/C [4] | viability, T/C [5] | viability, T/C [6] | viability, T/C [7] | viability, T/C [8] | viability, T/C [9] | viability, T/C [13] | viability, T/C [14] | viability, T/C [19] | viability, T/C [20] | viability, T/C [25] | viability, T/C [26] | also measured
1 | COc1cc(Nc2ncc3c(n2)-c2ccc(Cl)cc2C(c2c(F)cccc2OC)=NC3)ccc1C(=O)O + Cc1cncc(-c2nc(NCCc3c[nH]c4ccccc34)c3ncn(C(C)C)c3n2)c1 | 1460 nM | 1790 nM | 918 nM | 418 nM | < 31.6 nM | 68.9% | 72% | 64% | 51.5% | 44.2% | 32.4% | 71.9% | 67.8% | 69.6% | 71.2% | 71.4% | 56.9% | 58% | 4.64% | 6.08% | viability, T/C [10]: 54%; viability, T/C [11]: 45.3%; viability, T/C [12]: 35%; viability, T/C [15]: 62.4%; viability, T/C [16]: 47.4%; viability, T/C [17]: 41.4%; viability, T/C [18]: 33.4%; viability, T/C [21]: 52.2%; viability, T/C [22]: 42.3%; viability, T/C [23]: 35.3%; viability, T/C [24]: 30.5%; viability, T/C [27]: 4.95%; viability, T/C [28]: 4.83%; viability, T/C [29]: 4.84%; viability, T/C [30]: 6.67%
2 | Cn1ncnc1C1c2n[nH]c(=O)c3cc(F)cc(c23)NC1c1ccc(F)cc1 (stereo not given) + Cc1cncc(-c2nc(NCCc3c[nH]c4ccccc34)c3ncn(C(C)C)c3n2)c1 | > 100 nM | > 100 nM | > 100 nM | > 100 nM | < 0.316 nM | 87% | 94.1% | – | – | – | – | 95.2% | 92.3% | – | 85.5% | 89.8% | 59.8% | 67.8% | 6.12% | 8.13% | viability, T/C (second compound 0.1 µM, first compound 0.000316 µM): 96.5%; viability, T/C (second compound 0.1 µM, first compound 0.001 µM): 96.6%; viability, T/C (second compound 0.1 µM, first compound 0.00316 µM): 96.6%; viability, T/C (second compound 0.1 µM, first compound 0.01 µM): 89%; viability, T/C (second compound 0.316 µM, first compound 0.000316 µM): 97.1%; viability, T/C (second compound 0.316 µM, first compound 0.001 µM): 99.2%; viability, T/C (second compound 0.316 µM, first compound 0.00316 µM): 92.9%; viability, T/C (second compound 0.316 µM, first compound 0.01 µM): 92.3%; viability, T/C (second compound 1 µM, first compound 0.000316 µM): 88.4%; viability, T/C (second compound 1 µM, first compound 0.001 µM): 98.9%; viability, T/C (second compound 1 µM, first compound 0.00316 µM): 91.2%; viability, T/C (second compound 1 µM, first compound 0.01 µM): 84.4%; viability, T/C (second compound 3.16 µM, first compound 0.000316 µM): 60.6%; viability, T/C (second compound 3.16 µM, first compound 0.001 µM): 63.6%; viability, T/C (second compound 3.16 µM, first compound 0.00316 µM): 65%; viability, T/C (second compound 3.16 µM, first compound 0.01 µM): 70.1%; viability, T/C (second compound 10 µM, first compound 0.000316 µM): 5.06%; viability, T/C (second compound 10 µM, first compound 0.001 µM): 6.23%; viability, T/C (second compound 10 µM, first compound 0.00316 µM): 6.28%; viability, T/C (second compound 10 µM, first compound 0.01 µM): 7.11%
3 | NS(=O)(=O)OCC1CC(n2ccc3c(NC4CCc5ccccc54)ncnc32)CC1O (stereo not given) + Cc1cncc(-c2nc(NCCc3c[nH]c4ccccc34)c3ncn(C(C)C)c3n2)c1 | 448 nM | 412 nM | 244 nM | < 31.6 nM | < 31.6 nM | 87.5% | 86.2% | 55.5% | 33.3% | 23.7% | 18.3% | 89.2% | 81.6% | 52.1% | 78.3% | 71.3% | 19.1% | 18.4% | 1.63% | 1.35% | viability, T/C [10]: 35.4%; viability, T/C [11]: 22.4%; viability, T/C [12]: 19.2%; viability, T/C [15]: 41.6%; viability, T/C [16]: 29.7%; viability, T/C [17]: 20.3%; viability, T/C [18]: 17.9%; viability, T/C [21]: 18.8%; viability, T/C [22]: 18.3%; viability, T/C [23]: 15.5%; viability, T/C [24]: 13.8%; viability, T/C [27]: 0.89%; viability, T/C [28]: 0.94%; viability, T/C [29]: 0.76%; viability, T/C [30]: 0.77%
4 | O=C(C=Cc1cccc(S(=O)(=O)Nc2ccccc2)c1)NO + Cc1cncc(-c2nc(NCCc3c[nH]c4ccccc34)c3ncn(C(C)C)c3n2)c1 | 1260 nM | 1380 nM | 1120 nM | 119 nM | < 31.6 nM | 92.1% | 90.3% | 63.2% | 54.4% | 37.4% | 15.1% | 94.5% | 88.1% | 73.5% | 83.9% | 85% | 48.5% | 51.9% | 4.64% | 4.39% | viability, T/C [10]: 53.8%; viability, T/C [11]: 36.7%; viability, T/C [12]: 13.8%; viability, T/C [15]: 64.7%; viability, T/C [16]: 52.4%; viability, T/C [17]: 33.5%; viability, T/C [18]: 14.9%; viability, T/C [21]: 50%; viability, T/C [22]: 42.5%; viability, T/C [23]: 31.2%; viability, T/C [24]: 11.8%; viability, T/C [27]: 4.66%; viability, T/C [28]: 3.81%; viability, T/C [29]: 2.39%; viability, T/C [30]: 2.67%

Source: PubChem BioAssay AID1919007 (Molecular Pharmacology Branch, DTP, NCI, 2023)
